We go through 27 compounds from patent publication US12030879B2, “Sulfonyl acetamides as NLRP3 inhibitors” (Inflazome Limited, priority 2018, dated 2024).

T1 sequence (Q96P20 whole entry): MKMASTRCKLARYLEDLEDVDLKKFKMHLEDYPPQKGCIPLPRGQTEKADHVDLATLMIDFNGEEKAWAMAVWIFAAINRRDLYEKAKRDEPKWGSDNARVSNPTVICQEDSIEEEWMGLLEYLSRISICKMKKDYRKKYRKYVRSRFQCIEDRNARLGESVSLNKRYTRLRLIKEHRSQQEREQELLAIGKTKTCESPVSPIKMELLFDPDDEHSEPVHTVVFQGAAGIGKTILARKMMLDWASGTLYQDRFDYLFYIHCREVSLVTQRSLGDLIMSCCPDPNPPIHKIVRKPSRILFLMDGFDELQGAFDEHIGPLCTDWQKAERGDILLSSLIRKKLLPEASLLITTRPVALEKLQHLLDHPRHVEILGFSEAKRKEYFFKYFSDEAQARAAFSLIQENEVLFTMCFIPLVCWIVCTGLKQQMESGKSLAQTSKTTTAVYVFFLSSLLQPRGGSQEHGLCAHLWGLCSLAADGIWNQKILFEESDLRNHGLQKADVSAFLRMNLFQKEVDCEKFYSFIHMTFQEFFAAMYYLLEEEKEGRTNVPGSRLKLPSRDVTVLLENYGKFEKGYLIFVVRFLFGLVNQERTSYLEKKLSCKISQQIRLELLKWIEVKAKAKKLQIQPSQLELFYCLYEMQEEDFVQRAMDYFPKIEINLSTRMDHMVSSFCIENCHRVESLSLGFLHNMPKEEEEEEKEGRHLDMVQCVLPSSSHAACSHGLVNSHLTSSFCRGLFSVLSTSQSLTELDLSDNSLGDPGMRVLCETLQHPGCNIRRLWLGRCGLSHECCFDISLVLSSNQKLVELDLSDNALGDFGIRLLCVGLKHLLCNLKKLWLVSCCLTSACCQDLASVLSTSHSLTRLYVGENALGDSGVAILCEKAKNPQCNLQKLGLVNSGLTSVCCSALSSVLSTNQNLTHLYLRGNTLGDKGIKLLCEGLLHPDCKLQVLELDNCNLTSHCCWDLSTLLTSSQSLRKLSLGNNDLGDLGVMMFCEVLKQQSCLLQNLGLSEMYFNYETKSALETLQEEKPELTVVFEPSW

This test addresses T1, NLRP3 (Homo sapiens, UniProt Q96P20).
T1 construct: Seed THP-1 cells (25,000 cells/well) containing 1.0 μg/ml LPS in 40 μl of RPMI medium; host or cells: THP-1 cells
Description: THP-1 cells pyroptosis assay. Type of test: cell-based. The following applies: LPS 1 μg/ml, compound 3 hrs, nigericin 5 μM 1 hr, resazurin readout. A digest of the protocol: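 LPS-primed (1 μg/ml) THP-1 cells in serum-free RPMI were treated 3 h with compound (8-point half-log, top 10 μM; 0.1% DMSO), then with 5 μM nigericin for 1 h at 37°C. Viability was read by 100 μM resazurin (ex 560/em 590 nm) after 1–2 h. IC50 came from 4-parameter nonlinear regression.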
Background: The colour change of resazurin is a common sign of viable cells or microbes.
As for `COC(=O)c1cc(S(=O)(=O)NC(=O)Cc2c(-c3ccnc(OC)c3)cc(F)cc2C(C)C)ccc1F` [Example 92, Methyl 2-fluoro-5-(N-(2-(4-fluoro-2-isopropyl-6-(2-methoxypyridin-4-yl)phenyl)acetyl)sulfamoyl)benzoate], the IC50 (as a rule, the concentration that gives 50% inhibition) is at most 5 µM.
On to `COc1cc(-c2cc(F)cc(C(C)C)c2CC(=O)NS(=O)(=O)c2ccc(Cl)cc2)ccn1` [Example 93, N-((4-Chlorophenyl)sulfonyl)-2-(4-fluoro-2-isopropyl-6-(2-methoxypyridin-4-yl)phenyl)acetamide], for which the IC50 is at most 1 µM.
The same measure for `COc1cc(-c2cc(F)cc(C(C)C)c2CC(=O)NS(=O)(=O)c2cnc3c(c2)c(C)nn3C)ccn1` [Example 94, N-((1,3-Dimethyl-1H-pyrazolo[3,4-b]pyridin-5-yl)sulfonyl)-2-(4-fluoro-2-isopropyl-6-(2-methoxypyridin-4-yl)phenyl)acetamide]: at most 1 µM; for `COc1cc(-c2cc(F)cc(C(C)C)c2CC(=O)NS(=O)(=O)c2ccc(NC(C)=O)cc2)ccn1` [Example 95, N-((4-Acetamidophenyl)sulfonyl)-2-(4-fluoro-2-isopropyl-6-(2-methoxypyridin-4-yl)phenyl)acetamide]: at most 10 µM.
Consider `COc1cc(-c2cc(F)cc(C(C)C)c2CC(=O)NS(=O)(=O)c2ccc(C(=O)N(C)C)c(Cl)c2)ccn1` [Example 96, 2-Chloro-4-(N-(2-(4-fluoro-2-isopropyl-6-(2-methoxypyridin-4-yl)phenyl)acetyl)sulfamoyl)-N,N-dimethylbenzamide], for which the IC50 is at most 10 µM.
`COc1ccc(-c2cc(F)cc(C(C)C)c2CC(=O)NS(=O)(=O)c2ccc(C(C)(C)O)cc2C)cn1` [Example 97, 2-(4-Fluoro-2-isopropyl-6-(6-methoxypyridin-3-yl)phenyl)-N-((4-(2-hydroxypropan-2-yl)-2-methylphenyl)sulfonyl)acetamide] came in with an IC50 of at most 5 µM.
As to `COc1cc(-c2cc(F)cc(C(C)C)c2CC(=O)NS(=O)(=O)c2ccc(C(C)(C)O)c(Cl)c2)ccn1` [Example 98, N-((3-Chloro-4-(2-hydroxypropan-2-yl)phenyl)sulfonyl)-2-(4-fluoro-2-isopropyl-6-(2-methoxypyridin-4-yl)phenyl)acetamide], the IC50 was at most 0.5 µM.
With `COc1ccncc1-c1cc(F)cc(C(C)C)c1CC(=O)NS(=O)(=O)c1cc(C(C)(C)O)cs1` [Example 99, 2-(4-Fluoro-2-isopropyl-6-(4-methoxypyridin-3-yl)phenyl)-N-((4-(2-hydroxypropan-2-yl)thiophen-2-yl)sulfonyl)acetamide], the IC50 was at most 0.5 µM.
`Cc1cnccc1-c1cc(F)cc(C(C)C)c1CC(=O)NS(=O)(=O)c1cc(C(C)(C)O)cs1` [Example 100, 2-(4-Fluoro-2-isopropyl-6-(3-methylpyridin-4-yl)phenyl)-N-((4-(2-hydroxypropan-2-yl)thiophen-2-yl)sulfonyl)acetamide] came in with an IC50 of at most 0.5 µM.
The same measure for `COc1cc(-c2cc(F)cc(C(C)C)c2CC(=O)NS(=O)(=O)c2ccc(Cl)c(C)c2)ccn1` [Example 101, N-((4-Chloro-3-methylphenyl)sulfonyl)-2-(4-fluoro-2-isopropyl-6-(2-methoxypyridin-4-yl)phenyl)acetamide]: at most 0.5 µM; for `COc1cc(-c2cc(F)cc(C(C)C)c2CC(=O)NS(=O)(=O)c2ccc(O)nc2C)ccn1` [Example 102, 2-(4-Fluoro-2-isopropyl-6-(2-methoxypyridin-4-yl)phenyl)-N-((6-hydroxy-2-methylpyridin-3-yl)sulfonyl)acetamide]: at most 10 µM; for `COc1cc(-c2cc(F)cc(C(C)C)c2C(F)C(=O)NS(=O)(=O)c2cc(C(C)(C)O)co2)ccn1` (stereo not drawn) [Example 103, 2-Fluoro-2-(4-fluoro-2-isopropyl-6-(2-methoxypyridin-4-yl)phenyl)-N-((4-(2-hydroxypropan-2-yl)furan-2-yl)sulfonyl)acetamide]: at most 10 µM.
The same measure for `COc1cc(-c2cc(F)cc(C(C)C)c2C(F)C(=O)NS(=O)(=O)c2cc(C(C)(C)O)cs2)ccn1` (stereo not drawn) [Example 104, 2-Fluoro-2-(4-fluoro-2-isopropyl-6-(2-methoxypyridin-4-yl)phenyl)-N-((4-(2-hydroxypropan-2-yl)thiophen-2-yl)sulfonyl)acetamide]: at most 5 µM.
In turn, `COc1cc(-c2ccc3c(c2CC(=O)NS(=O)(=O)c2ncc(C(C)(C)O)s2)CCC3)ccn1` [Example 105, N-((5-(2-Hydroxypropan-2-yl)thiazol-2-yl)sulfonyl)-2-(5-(2-methoxypyridin-4-yl)-2,3-dihydro-1H-inden-4-yl)acetamide] displayed a half-maximal inhibitory concentration (IC50) of at most 10 µM.
`COc1cc(-c2cc(F)cc(C(C)C)c2CC(=O)NS(=O)(=O)c2ncc(C(C)(C)O)s2)ccn1` [Example 106, 2-(4-Fluoro-2-isopropyl-6-(2-methoxypyridin-4-yl)phenyl)-N-((5-(2-hydroxypropan-2-yl)thiazol-2-yl)sulfonyl)acetamide] registered an IC50 of at most 5 µM.
The value for `COc1cc(-c2ccc3c(c2CC(=O)NS(=O)(=O)c2cnc(C(C)(C)O)s2)CCC3)ccn1` [Example 107, N-((2-(2-Hydroxypropan-2-yl)thiazol-5-yl)sulfonyl)-2-(5-(2-methoxypyridin-4-yl)-2,3-dihydro-1H-inden-4-yl)acetamide] was at most 5 µM; that for `COc1cc(-c2cc(F)cc(C(C)C)c2CC(=O)NS(=O)(=O)c2cnc(C(C)(C)O)s2)ccn1` [Example 108, 2-(4-Fluoro-2-isopropyl-6-(2-methoxypyridin-4-yl)phenyl)-N-((2-(2-hydroxypropan-2-yl)thiazol-5-yl)sulfonyl)acetamide] was at most 5 µM.
On to `COc1cc(-c2cc(F)cc(C(C)C)c2CC(=O)NS(=O)(=O)c2ccccc2)ccn1` [Example 111, 2-(4-Fluoro-2-isopropyl-6-(2-methoxypyridin-4-yl)phenyl)-N-(phenylsulfonyl)acetamide], for which the half-inhibitory concentration (IC50) was at most 5 µM.
`COc1cc(-c2cc(F)cc(C(C)C)c2CC(=O)NS(=O)(=O)c2ccc(C)cc2)ccn1` [Example 112, 2-(4-Fluoro-2-isopropyl-6-(2-methoxypyridin-4-yl)phenyl)-N-tosylacetamide] had an IC50 of at most 5 µM.
The value for `COc1cc(-c2cc(F)cc(C(C)C)c2CC(=O)NS(=O)(=O)c2c(F)cc(C)cc2F)ccn1` [Example 113] was at most 1 µM; that for `COc1cc(-c2cc(F)cc(C(C)C)c2CC(=O)NS(=O)(=O)CC2(C#N)CCCCC2)ccn1` [Example 114] was at most 1 µM; that for `COc1cc(-c2cc(F)cc(C(C)C)c2CC(=O)NS(=O)(=O)c2cccc3ccoc23)ccn1` [Example 115] was at most 1 µM.
`COc1cc(-c2cc(F)cc(C(C)C)c2CC(=O)NS(=O)(=O)c2cc3ccccc3o2)ccn1` [Example 116] returned an IC50 of at most 1 µM.
`CCc1cccc(S(=O)(=O)NC(=O)Cc2c(-c3ccnc(OC)c3)cc(F)cc2C(C)C)c1` [Example 117] registered an IC50 of at most 0.5 µM.
Consider `COc1cc(-c2cc(F)cc(C(C)C)c2CC(=O)NS(=O)(=O)c2ccc3c(c2)CCCO3)ccn1` [Example 118], for which the IC50 is at most 1 µM.
The value for `COc1cccc(S(=O)(=O)NC(=O)Cc2c(-c3ccnc(OC)c3)cc(F)cc2C(C)C)c1` [Example 119] was at most 1 µM; that for `COc1cc(-c2cc(F)cc(C(C)C)c2CC(=O)NS(=O)(=O)c2ccc(C)cc2F)ccn1` [Example 120] was at most 1 µM.
